“Also recorded” adds a separate entry of the source.
Experiments:
UM-C4 colon tumor cells = experiment: UM-C4 xenograft, combination with fluorouracil; format: in vivo, NOD/SCID mice; details: day 46
Procedure: In certain embodiments, anti-DLL4 antibodies were analyzed in combination with chemotherapy for the ability to reduce growth of UM-C4 colon tumor cells in vivo. Dissociated UM-C4 cells (10,000 per animal) were injected subcutaneously into the right flank region of 6-8 week old NOD/SCID mice. The day after tumor cell injection, animals were injected intraperitoneal (i.p.) with 10 mg/kg murine 21M18 anti-DLL4 antibodies or PBS two times per week for the duration of the experiment with or without concurrent treatment with the anti-metabolite chemotherapy agent fluorouracil (5-FU) administered one time per week. Tumor growth was monitored weekly until growth was detected, after which point tumor growth was measured twice weekly for a total of 8 weeks.

human DLL4 = human DLL4 (Homo sapiens, UniProt Q9NR61); experiment: OMP-C11 tumor cell colonies overlaid with 3T3-DLL4 cells, HES1:ATOH1 expression; format: cell-based; set-up: expressed in transfected cells; host or cells: 3T3 cells; details: 5 μM
human DLL4, sequence (Q9NR61 27-685): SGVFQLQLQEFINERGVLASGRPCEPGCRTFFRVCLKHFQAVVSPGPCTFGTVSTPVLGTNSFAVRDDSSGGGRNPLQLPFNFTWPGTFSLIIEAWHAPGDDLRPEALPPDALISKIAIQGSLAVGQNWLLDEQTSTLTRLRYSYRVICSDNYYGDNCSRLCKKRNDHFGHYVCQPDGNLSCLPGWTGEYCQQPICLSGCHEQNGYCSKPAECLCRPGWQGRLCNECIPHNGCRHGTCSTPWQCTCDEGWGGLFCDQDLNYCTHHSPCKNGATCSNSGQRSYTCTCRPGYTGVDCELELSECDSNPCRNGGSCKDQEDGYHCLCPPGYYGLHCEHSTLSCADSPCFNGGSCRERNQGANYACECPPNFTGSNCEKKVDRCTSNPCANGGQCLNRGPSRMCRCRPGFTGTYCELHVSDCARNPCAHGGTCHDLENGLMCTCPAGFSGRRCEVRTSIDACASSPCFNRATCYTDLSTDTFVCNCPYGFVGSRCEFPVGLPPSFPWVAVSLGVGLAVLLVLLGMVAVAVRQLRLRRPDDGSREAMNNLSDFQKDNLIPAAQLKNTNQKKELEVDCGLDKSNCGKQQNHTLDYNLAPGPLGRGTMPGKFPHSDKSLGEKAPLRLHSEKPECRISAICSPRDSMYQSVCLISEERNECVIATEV
Procedure: In some embodiments, mouse lineage-depleted OMP-C11 tumor cell colonies were established using culture conditions known to maintain tumorigenic cells in vitro. These tumor cell colonies were overlaid with 3T3 cells without (3T3) or including human DLL4 (DLL4) overexpressed on the cell surface in the presence or absence of 10 μg/mL murine 21M18 or 5 μM gamma-secretase inhibitor (GSI; i.e. DBZ). A no overlay control was also included.

OMP-C8 tumor cells = experiment: OMP-C8 colon tumor xenograft growth prevention, combination with Irinotecan; format: in vivo, NOD/SCID mice; details: 21M18 10 mg/kg twice per week; Irinotecan 7.5 mg/kg weekly; n=10 per group
Procedure: In certain embodiments, anti-DLL4 antibodies were tested in combination with the chemotherapeutic Irinotecan. In some embodiments, dissociated OMP-C8 tumor cells (10,000 per animal) were injected subcutaneously into the right flank region of 6-8 week old NOD/SCID mice. The day after tumor cell injection, animals were injected intraperitoneal (i.p.) with 10 mg/kg murine 21M18 anti-DLL4 antibodies or control antibody two times per week for the duration of the experiment with or without concurrent treatment with the chemotherapy agent Irinotecan administered one time per week at a dosage of 7.5 mg/kg. Tumor growth was monitored weekly until growth was detected, after which point tumor growth was measured twice weekly. […] In certain embodiments, humanized H7L2 21M18 anti-DLL4 antibodies were tested in combination with Irinotecan. In some embodiments, dissociated C8 tumor cells (10,000 per animal) were injected subcutaneously into the right flank region of 6-8 week old NOD/SCID mice. […] Tumor growth was monitored weekly until growth was detected, after which point tumor growth was measured twice weekly.

C8 cells = experiment: Established C8 colon tumors, combination with Irinotecan; format: in vivo, NOD/SCID mice; details: treatment from approximately 60 mm^3; 21M18 10 mg/kg two times per week; Irinotecan 7.5 mg/kg one time per week
Procedure: In some embodiments, combination anti-DLL4 murine 21M18 and Irinotecan treatment was used to treat established colon tumors. Dissociated C8 cells (10,000 per animal) were injected subcutaneously into the right flank region of 6-8 week old NOD/SCID mice. When the injected cells produced tumors of approximately 60 mm^3, treatment was commenced. Animals were injected intraperitoneal (i.p.) with 10 mg/kg murine 21M18 anti-DLL4 antibodies or a control two times per week for the duration of the experiment with or without concurrent treatment with the chemotherapy agent Irinotecan administered one time per week at a dosage of 7.5 mg/kg.

SMILES: O=c1[nH]cc(F)c(=O)[nH]1 [5-FU, fluorouracil, reference compound]
- tumor size compared to control (UM-C4 colon tumor cells): reduced tumor size

SMILES: C[C@H](NC(=O)Cc1cc(F)cc(F)c1)C(=O)N[C@@H]1C(=O)N(C)c2ccccc2-c2ccccc21 [GSI, reference compound]
- DLL4-induced Notch target gene changes (ratio of HES1:ATOH1) (human DLL4): inhibited DLL4-induced Notch target gene changes

SMILES: CCc1c2c(nc3ccc(OC(=O)N4CCC(N5CCCCC5)CC4)cc13)-c1cc3c(c(=O)n1C2)COC(=O)[C@]3(O)CC [Irinotecan]
- tumor growth after treatment cessation on day 56 (OMP-C8 tumor cells): tumor growth continued or accelerated in most animals; also recorded: growth continued after cessation of treatment on day 56 (* arrow) in all but two treated animals
- growth of established colon tumors (C8 cells): reduced tumor volume

— patent publication US9228020B2, “Compositions and methods for diagnosing and treating cancer” (OncoMed Pharmaceuticals, Inc., priority 2006, dated 2016)
